Reference: US8962580B2, “Chemical modifications of monomers and oligonucleotides with cycloaddition” (Alnylam Pharmaceuticals, Inc., priority 2008, dated 2015)
Like-named read-outs stand apart in the source and are kept apart here. {L125} = ligand L125 of the publication, structure not given; d = 2'-deoxy (DNA); m = 2'-O-methyl; r = 2'-OH (RNA)

Test system: firefly luciferase gene
Test: Dual-luciferase assay for RNA interfering evaluation
Type: cell-based
Conditions: for IC50: read-out: IC 50 Values
Method: 1. Dual-Luciferase Assay for RNA Interfering Evaluation
Modified RNAs obtained by solid-phase synthesis and click reactions were evaluated in RNA interfering in dual-luciferase assays. Duplexes were prepared by heating at 95° C. for 2 min and cooling to room temperature for 2 hours in 1X Phosphate buffered saline. (Table 12-14).
The ability of modified siRNAs to suppress gene expression was studied by a dual-luciferase assay using a pGL4 vector (Promega), which contained the Renilla and firefly luciferase genes. The siRNA sequences were designed to target the firefly luciferase gene. Stably transfected HeLa cells were then transfected with the indicated amounts of siRNAs, and the signals of firefly luciferase were normalized to those of renilla luciferase. HeLa SS6 cells were stably transfected with plasmids encoding firefly (target) and Renilla (control) luciferases.
RNA interference methods: Hela cells were grown at 37° C., 5% CO2 in Dulbecco's modified Eagles's medium (DMEM, GIBCO) supplemented with 10% fetal bovine serum (FBS) and 1% antibiotic. The cells were maintained in the exponential growth phase. The cells were then plated in 96-well plates (0.1 mL medium per well) to reach about 90% confluence at transfection. Transfection was allowed to proceed for 24 hr at 37° C. and on day 2 the culture medium was changed to OPTIMEM 1, a reduced serum media (GIBCO). Two luciferase plasmids, Renilla luciferase (pRL-CMV) and firefly luciferase (pGL3) from Promega, were used as control and reporter, respectively. Transfection of siRNAs was carried out with Lipofectamine 2000 (Invitrogen) as described by the manufacturer for adherent cell lines. The final volume was 150 uL per well. On day 2 cells are transfected with, firefly luciferase targeting, siRNA of varying concentrations ranging from 2 pM to 8 nM mediated by Lipofectamine 2000 reagent (Invitrogen). After 24 h, cells were analyzed for both firefly and renilla luciferase expression using a plate luminometer with a delay time of 2 s and an integrate time of 10 s. (VICTOR2, PerkinElmer, Boston, Mass.) and the Dual-Glo Luciferase Assay kit (Promega), FIG. 24. Firefly/renilla luciferase expression ratios were used to determine percent gene silencing relative to untreated (no siRNA) controls. Values generated represent the mean of triplicates.
The screening process began with a primary screen where all the compounds were screened against the parent unmodified duplex as a comparison. […] The final set of compounds was compared to one of our best modifications AD3202 and it can be seen that these compounds match up to AD 3202 in potency, however the exact mechanism by which the Uda modification contributes to improved activity is to be determined through further studies.
Dual HeLa (HeLa cells transfected with PGL4 plasmid for luciferase expression)
Tissue culture medium, trypsin and Lipofectamine-2000—purchased from Invitrogen (Carlsbad, Calif.).
DMEM supplemented with 10% fetal bovine serum, 1% antibiotic solution.
siRNA treatment was performed using Opti-MEM (Invitrogen) containing 1 mg/ml Lipofectamine2000
DMEM without phenol red, Promega Dual Glo Luciferase Assay kit, 0.25% Trypsin (Invitrogen).

[1] = Table 13 (Part II), stably transfected HeLa cells, Lipofectamine 2000, 24 h, firefly/renilla luciferase ratio
[2] = Table 12 (Part I), stably transfected HeLa cells, Lipofectamine 2000, 24 h, firefly/renilla luciferase ratio

Q: Which results are given for “AD-1000: parent unmodified siRNA duplex: sense 1000 CUUACGCUGAGUACUUCGAdTdT, antisense 1001 UCGAAGUACUCAGCGUAAGdTdT (sense CUUACGCUGAGUACUUCGATT; antisense UCGAAGUACUCAGCGUAAGTT; sugars from the 5' end r19 d2, backbone not given here) [reference compound]”?
A: IC50 [1]: 0.38 nM; IC50 (Table 14 (Part III), stably transfected HeLa cells, Lipofectamine 2000, 24 h, firefly/renilla luciferase ratio): 0.326 nM; IC50 (Table 15 (Part IV), selected potent duplexes, secondary screen / head to head comparison): 0.242 nM

Q: “AD-20156: siRNA duplex: sense 33031.1 CUUACGCUGAGUACUUCGAdT(Uda2p), antisense 1001; Uda2p-3′end (sense CUUACGCUGAGUACUUCGAT; antisense UCGAAGUACUCAGCGUAAGTT; Uda2p 3' end on sense, chemistry not fully specified)” was tested. Which IC50 [1] did it give?
A: The IC50 was 1.18 nM.

Q: With “AD-20203: siRNA duplex: sense 37077 CUUACGCUGAGUACUUCGAdTdT(T31y), antisense 1001; 3′ (T31y) (sense CUUACGCUGAGUACUUCGATT; antisense UCGAAGUACUCAGCGUAAGTT; 3' (T31y) on sense, chemistry not fully specified)” as the substance, how does the IC50 [2] read?
A: Its IC50 is 1.41 nM.

Q: With “AD-20157: siRNA duplex: sense 33032.1 CUUACGCUGAG(Uda)ACUUCGAdT(Uda2p), antisense 1001; U12-->Uda, Uda2p-3′end (sense CUUACGCUGAGUACUUCGAT; antisense UCGAAGUACUCAGCGUAAGTT; U12 Uda, Uda2p 3' end on sense, chemistry not fully specified)” as the substance, how does the “IC 50 Values (nM)” value [1] read?
A: The value was “NA—out”.

Q: Which IC50 [2] does the source give for “AD-20201: siRNA duplex: sense 36862 CUUACGCUGAGUACUUCGAdTdTL125, antisense 1001; 3′ L125 (sense CUUACGCUGAGUACUUCGATT; antisense UCGAAGUACUCAGCGUAAGTT; 3' L125 on sense, chemistry not fully specified)” here?
A: Its IC50 is 0.922 nM.

Q: What does the source list for “AD-20158: siRNA duplex: sense 33033.1 C(Uda)UACGCUGAGUACUUCGAdT(Uda2p), antisense 1001; U2-->Uda, Uda2p-3′end (sense CUUACGCUGAGUACUUCGAT; antisense UCGAAGUACUCAGCGUAAGTT; U2 Uda, Uda2p 3' end on sense, chemistry not fully specified)”?
A: Fold Increase in activity as compared to parent (Table 13 (Part II), parent AD-1000): 2 fold; IC50 [1]: 1.5 nM

Q: “AD-20202: siRNA duplex: sense 37075 CUUACGCUGAGUACUUCGAdTdT(T1y), antisense 1001; 3′ (Tly) (sense CUUACGCUGAGUACUUCGATTT; antisense UCGAAGUACUCAGCGUAAGTT; 3' (Tly) on sense, chemistry not fully specified)” was tested. Which IC50 [2] did it give?
A: The IC50 was 1.12 nM.

Q: How did the “IC 50 Values (nM)” value [2] turn out when “AD-20321: siRNA duplex: sense 38103.1 AAcGcuGGGcGuuAAucAAdTdTL125 (2′OMe-all Py and 3′ L125), antisense 24599 UUGAUuAACGCCcAGCGUUdTsdT (sense AACGCUGGGCGUUAAUCAATT; antisense UUGAUUAACGCCCAGCGUUTT; sense: DNA at T, 2'-O-methyl at CU, RNA at AG, 3' {L125}, backbone not given here; antisense: sugars from the 5' end rrrrrmrrrrrrmrrrrrrdd, backbone not given here)” was run?
A: The value was “out of range”.
